Test results published in US6358885B1, “Substituted phenylheterocyclic herbicides” (Mississippi State University, priority 1992, dated 2002).

Key:
Test in all cases: Test F preemergence/postemergence greenhouse plant response rating 0 to 100
Conditions in all cases: 0 to 100 scale
[1] = tested on: blackgrass; assay type: in vivo, Alopecurus myosuroides
From the text: (§1) Compounds evaluated in this test were formulated in a non-phytoxic solvent and applied to the soil surface before plant seedlings emerged (preemergence application) and to plants that were in the one-to-four leaf stage (postemergence application). A sandy loam soil was used for the preemergence test while a mixture of sandy loam soil and greenhouse potting mix in a 60:40 ratio was used for the postemergence test. Test compounds were applied within approximately one day after planting seeds for the preemergence test. Plantings of these crops and weed species were adjusted to produce plants of appropriate size for the postemergence test. All plant species were grown using normal greenhouse practices. Crop and weed species include winter barley (Hordeum vulgare cv. ‘Igri’), blackgrass (Alopecurus myosuroides), chickweed (Stellaria media), downy brome (Bromus tectorum), field violet (Viola arvensis), galium (Galium aparine), green foxtail (Setaria viridis), kochia (Kochia scoparia), lambsquarters (Chenopodium album), speedwell (Veronica persica), rape (Brassica napus), ryegrass (Lolium multiflorum), sugar beet (Beta vulgaris cv. ‘USl’), sunflower (Helianthus annuus cv. ‘Russian Giant’), spring wheat (Triticum aestivum cv. ‘ERA’), winter wheat (Triticum aestivum cv. ‘Talent’), wild buckwheat (Polygonum convolvulus), wild mustard (Sinapis arvensis), wild oat (Avena fatua), and wild radish (Raphanus raphanistrum). Blackgrass, galium and wild oat were treated at two growth stages. […] Treated plants and untreated controls were maintained in a greenhouse for approximately 21 to 28 days, after which all treated plants were compared to untreated controls and visually evaluated. […] A dash response (-) means no test result.

[2] = tested on: sunflower; assay type: in vivo, Helianthus annuus cv. ‘Russian Giant’
From the text: as §1

[3] = tested on: wild radish; assay type: in vivo, Raphanus raphanistrum
From the text: as §1

[4] = tested on: lambsquarters; assay type: in vivo, Chenopodium album
From the text: as §1

[5] = tested on: spring wheat; assay type: in vivo, Triticum aestivum cv. ‘ERA’
From the text: as §1

[6] = tested on: rape; assay type: in vivo, Brassica napus
From the text: as §1

[7] = tested on: wild buckwheat; assay type: in vivo, Polygonum convolvulus
From the text: as §1

## C#CCOc1cc(-c2nn3c(c2Br)CCCC3)c(F)cc1Cl [Compound 26]
[1]; POSTEMERGENCE, Rate 32 g/ha, stage (1) two to three leaves
  Blackgrass (1) plant response rating: 0
[1]; POSTEMERGENCE, Rate 32 g/ha, stage (2) approximately four leaves or initial tillering
  Blackgrass (2) plant response rating: 0
[1]; POSTEMERGENCE, Rate 64 g/ha, stage (1) two to three leaves
  Blackgrass (1) plant response rating: 0
[1]; POSTEMERGENCE, Rate 64 g/ha, stage (2) approximately four leaves or initial tillering
  Blackgrass (2) plant response rating: 10
[1]; POSTEMERGENCE, Rate 125 g/ha, stage (1) two to three leaves
  Blackgrass (1) plant response rating: 10
[1]; POSTEMERGENCE, Rate 125 g/ha, stage (2) approximately four leaves or initial tillering
  Blackgrass (2) plant response rating: 10
[1]; POSTEMERGENCE, Rate 250 g/ha, stage (1) two to three leaves
  Blackgrass (1) plant response rating: 30
[1]; POSTEMERGENCE, Rate 250 g/ha, stage (2) approximately four leaves or initial tillering
  Blackgrass (2) plant response rating: 15
[1]; PREEMERGENCE, Rate 4 g/ha, Blackgrass (1)
  Blackgrass (1) plant response rating: 0
[1]; PREEMERGENCE, Rate 4 g/ha, Blackgrass (2)
  Blackgrass (2) plant response rating: 0
[1]; PREEMERGENCE, Rate 8 g/ha, Blackgrass (1)
  Blackgrass (1) plant response rating: 0
[1]; PREEMERGENCE, Rate 8 g/ha, Blackgrass (2)
  Blackgrass (2) plant response rating: 0
[1]; PREEMERGENCE, Rate 16 g/ha, Blackgrass (1)
  Blackgrass (1) plant response rating: 0
[1]; PREEMERGENCE, Rate 16 g/ha, Blackgrass (2)
  Blackgrass (2) plant response rating: 0
[1]; PREEMERGENCE, Rate 32 g/ha, Blackgrass (1)
  Blackgrass (1) plant response rating: 0
[1]; PREEMERGENCE, Rate 32 g/ha, Blackgrass (2)
  Blackgrass (2) plant response rating: 0
[1]; PREEMERGENCE, Rate 64 g/ha, Blackgrass (1)
  Blackgrass (1) plant response rating: 0
[1]; PREEMERGENCE, Rate 64 g/ha, Blackgrass (2)
  Blackgrass (2) plant response rating: 0
[1]; PREEMERGENCE, Rate 125 g/ha, Blackgrass (1)
  Blackgrass (1) plant response rating: 20
[1]; PREEMERGENCE, Rate 125 g/ha, Blackgrass (2)
  Blackgrass (2) plant response rating: 40
[1]; PREEMERGENCE, Rate 250 g/ha, Blackgrass (1)
  Blackgrass (1) plant response rating: 40
[1]; PREEMERGENCE, Rate 250 g/ha, Blackgrass (2)
  Blackgrass (2) plant response rating: 40
[2]; POSTEMERGENCE, Rate 4 g/ha
  Sunflower plant response rating: 0
[2]; POSTEMERGENCE, Rate 8 g/ha
  Sunflower plant response rating: 0
[2]; POSTEMERGENCE, Rate 16 g/ha
  Sunflower plant response rating: 0
[2]; POSTEMERGENCE, Rate 32 g/ha
  Sunflower plant response rating: 20
[2]; POSTEMERGENCE, Rate 64 g/ha
  Sunflower plant response rating: 60
[2]; POSTEMERGENCE, Rate 125 g/ha
  Sunflower plant response rating: 100
[2]; POSTEMERGENCE, Rate 250 g/ha
  Sunflower plant response rating: 60
[2]; PREEMERGENCE, Rate 4 g/ha
  Sunflower plant response rating: 0
[2]; PREEMERGENCE, Rate 8 g/ha
  Sunflower plant response rating: 0
[2]; PREEMERGENCE, Rate 16 g/ha
  Sunflower plant response rating: 0
[2]; PREEMERGENCE, Rate 32 g/ha
  Sunflower plant response rating: 0
[2]; PREEMERGENCE, Rate 64 g/ha
  Sunflower plant response rating: 0
[2]; PREEMERGENCE, Rate 125 g/ha
  Sunflower plant response rating: 10
[2]; PREEMERGENCE, Rate 250 g/ha
  Sunflower plant response rating: 60
[3]; POSTEMERGENCE, Rate 4 g/ha
  Wild radish plant response rating: 0
[3]; POSTEMERGENCE, Rate 8 g/ha
  Wild radish plant response rating: 20
[3]; POSTEMERGENCE, Rate 16 g/ha
  Wild radish plant response rating: 60
[3]; POSTEMERGENCE, Rate 32 g/ha
  Wild radish plant response rating: 60
[3]; POSTEMERGENCE, Rate 64 g/ha
  Wild radish plant response rating: 60
[3]; POSTEMERGENCE, Rate 125 g/ha
  Wild radish plant response rating: 60
[3]; POSTEMERGENCE, Rate 250 g/ha
  Wild radish plant response rating: 60
[3]; PREEMERGENCE, Rate 4 g/ha
  Wild radish plant response rating: 0
[3]; PREEMERGENCE, Rate 8 g/ha
  Wild radish plant response rating: 0
[3]; PREEMERGENCE, Rate 16 g/ha
  Wild radish plant response rating: 0
[3]; PREEMERGENCE, Rate 32 g/ha
  Wild radish plant response rating: 0
[3]; PREEMERGENCE, Rate 64 g/ha
  Wild radish plant response rating: 40
[3]; PREEMERGENCE, Rate 125 g/ha
  Wild radish plant response rating: 70
[3]; PREEMERGENCE, Rate 250 g/ha
  Wild radish plant response rating: 100
[4]; POSTEMERGENCE, Rate 8 g/ha
  Lambsquarters plant response rating: 50
[4]; POSTEMERGENCE, Rate 16 g/ha
  Lambsquarters plant response rating: 50
[4]; POSTEMERGENCE, Rate 32 g/ha
  Lambsquarters plant response rating: 100
[4]; POSTEMERGENCE, Rate 64 g/ha
  Lambsquarters plant response rating: 100
[4]; POSTEMERGENCE, Rate 125 g/ha
  Lambsquarters plant response rating: 100
[4]; POSTEMERGENCE, Rate 250 g/ha
  Lambsquarters plant response rating: 100
[4]; PREEMERGENCE, Rate 4 g/ha
  Lambsquarters plant response rating: 0
[4]; PREEMERGENCE, Rate 8 g/ha
  Lambsquarters plant response rating: 70
[4]; PREEMERGENCE, Rate 16 g/ha
  Lambsquarters plant response rating: 80
[4]; PREEMERGENCE, Rate 32 g/ha
  Lambsquarters plant response rating: 100
[4]; PREEMERGENCE, Rate 64 g/ha
  Lambsquarters plant response rating: 100
[4]; PREEMERGENCE, Rate 125 g/ha
  Lambsquarters plant response rating: 100
[5]; POSTEMERGENCE, Rate 4 g/ha
  Wheat (Spring) plant response rating: 0
[5]; POSTEMERGENCE, Rate 8 g/ha
  Wheat (Spring) plant response rating: 0
[5]; POSTEMERGENCE, Rate 16 g/ha
  Wheat (Spring) plant response rating: 0
[5]; POSTEMERGENCE, Rate 32 g/ha
  Wheat (Spring) plant response rating: 15
[5]; POSTEMERGENCE, Rate 64 g/ha
  Wheat (Spring) plant response rating: 15
[5]; POSTEMERGENCE, Rate 125 g/ha
  Wheat (Spring) plant response rating: 15
[5]; POSTEMERGENCE, Rate 250 g/ha
  Wheat (Spring) plant response rating: 20
[5]; PREEMERGENCE, Rate 4 g/ha
  Wheat (Spring) plant response rating: 0
[5]; PREEMERGENCE, Rate 8 g/ha
  Wheat (Spring) plant response rating: 0
[5]; PREEMERGENCE, Rate 16 g/ha
  Wheat (Spring) plant response rating: 0
[5]; PREEMERGENCE, Rate 32 g/ha
  Wheat (Spring) plant response rating: 0
[5]; PREEMERGENCE, Rate 64 g/ha
  Wheat (Spring) plant response rating: 0
[5]; PREEMERGENCE, Rate 125 g/ha
  Wheat (Spring) plant response rating: 15
[5]; PREEMERGENCE, Rate 250 g/ha
  Wheat (Spring) plant response rating: 20
[6]; POSTEMERGENCE, Rate 4 g/ha
  Rape plant response rating: 0
[6]; POSTEMERGENCE, Rate 8 g/ha
  Rape plant response rating: 0
[6]; POSTEMERGENCE, Rate 16 g/ha
  Rape plant response rating: 50
[6]; POSTEMERGENCE, Rate 32 g/ha
  Rape plant response rating: 100
[6]; POSTEMERGENCE, Rate 64 g/ha
  Rape plant response rating: 100
[6]; POSTEMERGENCE, Rate 125 g/ha
  Rape plant response rating: 100
[6]; POSTEMERGENCE, Rate 250 g/ha
  Rape plant response rating: 100
[6]; PREEMERGENCE, Rate 4 g/ha
  Rape plant response rating: 0
[6]; PREEMERGENCE, Rate 8 g/ha
  Rape plant response rating: 0
[6]; PREEMERGENCE, Rate 16 g/ha
  Rape plant response rating: 0
[6]; PREEMERGENCE, Rate 32 g/ha
  Rape plant response rating: 20
[6]; PREEMERGENCE, Rate 64 g/ha
  Rape plant response rating: 60
[6]; PREEMERGENCE, Rate 125 g/ha
  Rape plant response rating: 80
[6]; PREEMERGENCE, Rate 250 g/ha
  Rape plant response rating: 100
[7]; POSTEMERGENCE, Rate 4 g/ha
  Wild buckwheat plant response rating: 100
[7]; POSTEMERGENCE, Rate 8 g/ha
  Wild buckwheat plant response rating: 100
[7]; POSTEMERGENCE, Rate 16 g/ha
  Wild buckwheat plant response rating: 100
[7]; POSTEMERGENCE, Rate 32 g/ha
  Wild buckwheat plant response rating: 100
[7]; POSTEMERGENCE, Rate 64 g/ha
  Wild buckwheat plant response rating: 100
[7]; POSTEMERGENCE, Rate 125 g/ha
  Wild buckwheat plant response rating: 100
[7]; POSTEMERGENCE, Rate 250 g/ha
  Wild buckwheat plant response rating: 100
[7]; PREEMERGENCE, Rate 4 g/ha
  Wild buckwheat plant response rating: 0
[7]; PREEMERGENCE, Rate 8 g/ha
  Wild buckwheat plant response rating: 0
[7]; PREEMERGENCE, Rate 16 g/ha
  Wild buckwheat plant response rating: 30
[7]; PREEMERGENCE, Rate 32 g/ha
  Wild buckwheat plant response rating: 100
[7]; PREEMERGENCE, Rate 64 g/ha
  Wild buckwheat plant response rating: 100
[7]; PREEMERGENCE, Rate 125 g/ha
  Wild buckwheat plant response rating: 100
[7]; PREEMERGENCE, Rate 250 g/ha
  Wild buckwheat plant response rating: 100
